Test results as given in patent US8367873B2, “Phenyl-substituted bicyclooctane-1,3-dione derivatives” (Bayer Cropscience AG, priority 2008, dated 2013).

Key:
Assay type in all cases: in vivo
Echinocloa crus-galli [1] = assay: Herbicidal post-emergence action; conditions: post-emergence method; for herbicidal effect against ECHCG (Echinochloa crus-galli): 80 g/ha
Outline: (§1)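 Post-emergence spray test: wettable-powder formulations are applied at different amounts to one-leaf-stage plants in 600 l/ha water containing 0.2% wetting agent. After roughly three weeks in the greenhouse, percent effect is rated visually relative to untreated controls.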

Alopecurus myosuroides [2] = assay: Herbicidal post-emergence action; conditions: post-emergence method; for herbicidal effect against ALOMY (Alopecurus myosuroides): 80 g/ha
Outline: as §1

Lolium multiflorum [3] = assay: Herbicidal post-emergence action; conditions: post-emergence method; for herbicidal effect against LOLMU (Lolium multiflorum): 80 g/ha
Outline: as §1

Setaria viridis [4] = assay: Herbicidal post-emergence action; conditions: post-emergence method; for herbicidal effect against SETVI (Setaria viridis): 80 g/ha
Outline: as §1

Echinocloa crus-galli [5] = assay: Herbicidal pre-emergence action; conditions: pre-emergence method, 80 g/ha, greenhouse, visual assessment vs untreated controls
Outline: (§2)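 Test compounds, as wettable powder suspensions with 0.2% wetting agent at a water rate of 600 l/ha, were applied in different amounts to the covering soil over freshly sown seeds in sandy loam. Emergence damage was rated visually in percent against untreated plants after three weeks under greenhouse conditions.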

Alopecurus myosuroides [6] = assay: Herbicidal pre-emergence action; conditions: pre-emergence method, 80 g/ha, greenhouse, visual assessment vs untreated controls
Outline: as §2

Lolium multiflorum [7] = assay: Herbicidal pre-emergence action; conditions: pre-emergence method, 80 g/ha, greenhouse, visual assessment vs untreated controls
Outline: as §2

Setaria viridis [8] = assay: Herbicidal pre-emergence action; conditions: pre-emergence method, 80 g/ha, greenhouse, visual assessment vs untreated controls
Outline: as §2

[9] = test system: monocotylidonous and dicotylidonous weed and crop plants; assay: Herbicidal post-emergence action (other test plants); conditions: post-emergence method; for herbicidal effect against AVEFA (Avena fatua): 80 g/ha
Outline: as §1

[10] = test system: monocotylidonous and dicotylidonous weed and crop plants; assay: Herbicidal pre-emergence action (other test plants); conditions: pre-emergence method, 80 g/ha, greenhouse, visual assessment vs untreated controls
Outline: as §2

Row | Compound | herbicidal effect against ECHCG (Echinochloa crus-galli) (Echinocloa crus-galli [1]) | herbicidal effect against ALOMY (Alopecurus myosuroides) (Alopecurus myosuroides [2]) | herbicidal effect against LOLMU (Lolium multiflorum) (Lolium multiflorum [3]) | herbicidal effect against SETVI (Setaria viridis) (Setaria viridis [4]) | herbicidal effect ECHCG (Echinocloa crus-galli [5]) | herbicidal effect ALOMY (Alopecurus myosuroides [6]) | herbicidal effect LOLMU (Lolium multiflorum [7]) | herbicidal effect SETVI (Setaria viridis [8]) | herbicidal effect against AVEFA (Avena fatua) [9] | herbicidal effect AVEFA [10] | pest or weed control at 80 g/ha (Echinocloa crus-galli [1]; Echinochloa crus-galli, 504 h, read-out: herbicidal effect against ECHCG (Echinochloa crus-galli)) | pest or weed control at 80 g/ha (Alopecurus myosuroides [2]; Alopecurus myosuroides, 504 h, read-out: herbicidal effect against ALOMY (Alopecurus myosuroides)) | pest or weed control at 80 g/ha (Lolium multiflorum [3]; Lolium multiflorum, 504 h, read-out: herbicidal effect against LOLMU (Lolium multiflorum)) | pest or weed control at 80 g/ha (Setaria viridis [4]; Setaria viridis, 504 h, read-out: herbicidal effect against SETVI (Setaria viridis)) | pest or weed control at 80 g/ha ([9]; 504 h, Avena fatua, read-out: herbicidal effect against AVEFA (Avena fatua))
1 | CCc1cc(C)cc(CC)c1C1=C(O)[C@H]2CC3(C[C@H]2C1=O)OCC(OC)CO3 (relative stereo) [I-a-26] | 100% | 100% | 100% | 100% | 100% | 100% | 100% | 100% | 100% | 70% | – | – | – | – | –
2 | C=C1CC2C(=O)C(c3c(CC)cc(C)cc3CC)=C(OC(=O)OCC)C2C1 (stereo not drawn) [I-c-5, 2-(2,6-diethyl-4-methylphenyl)-5-methylidene-3-oxo-3,3a,4,5,6,6a-hexahydropentalen-1-yl ethyl carbonate] | – | – | – | – | 90% | 80% | 80% | 80% | – | 80% | 100% | 20% | 90% | 90% | 30%
3 | C=C1CC2C(=O)C(c3c(C)cc(C)cc3OC)=C(O)C2C1 (stereo not drawn) [I-a-45] | 80% | 0% | 0% | 80% | 100% | 80% | 80% | 100% | 0% | 60% | – | – | – | – | –
4 | COC(=O)OC1=C(c2c(C)cc(C)cc2C)C(=O)C2CC3(CC12)OCC=CCO3 (racemic) [I-c-52] | 90% | 100% | 100% | 100% | 50% | 60% | 100% | 70% | 80% | 70% | – | – | – | – | –
5 | C=C1CC2C(=O)C(c3c(C)cc(C)cc3CC)=C(OC(=O)OCC)C2C1 (racemic) [I-c-76] | 100% | 10% | 90% | 100% | 100% | 80% | 90% | 90% | 0% | 20% | – | – | – | – | –
6 | COc1cc(C)cc(C)c1C1=C([O-])C2CC3(CC2C1=O)OCCCCO3.[Na+] (stereo not drawn) [I-f-5] | 100% | 100% | 100% | 100% | 70% | 90% | 90% | 90% | 100% | 70% | – | – | – | – | –
7 | CCOC(=O)OC1=C(c2c(CC)cc(C)cc2CC)C(=O)C2CC3(CC12)OCC(C)O3 (mixture of isomers) [I-c-8] | 100% | 90% | 100% | 90% | 60% | 60% | 100% | 50% | 60% | 40% | – | – | – | – | –
8 | COc1cc(C)cc(C)c1C1=C([O-])C2CC3(CC2C1=O)OCC=CCO3.[Na+] (stereo not drawn) [I-f-7] | 100% | 100% | 100% | 100% | 80% | 100% | 100% | 90% | 100% | 70% | – | – | – | – | –
9 | C=C1CC2C(=O)C(c3c(C)cc(C)cc3CC)=C(O)C2C1 (stereo not drawn) [I-a-55] | 100% | 20% | 40% | 100% | 100% | 60% | 50% | 90% | 0% | 60% | – | – | – | – | –
